ChEMBL document CHEMBL1122718, “Benzylamines: synthesis and evaluation of antimycobacterial properties” (1984)

How the values were obtained:
[1] = tested on: Mycobacterium tuberculosis; experiment: Compounds were evaluated for the minimum inhibitory concentration (MIC) Mycobacterium tuberculosis H 37 Rv (INH resistant); type: functional
[2] = tested on: Mycobacterium tuberculosis; experiment: Compounds were evaluated for the minimum inhibitory concentration (MIC) Mycobacterium tuberculosis H 37 Rv (thiosemicarbazone resistant); type: functional

CCCCNCc1cccc(F)c1.Cl
MIC [1]: 8 µg/mL
MIC [2]: 32 µg/mL
